In test [1] the test system is HUVEC. The test is described as follows: Antivascular activity against HUVEC cells assessed as cell growth inhibition after 24 hrs by xCELLigence assay. It is filed as functional, cell-based. The note with it: Homo sapiens.
Test [2] deals with HUVEC. The test is described as follows: Antivascular activity against HUVEC cells assessed as cell growth inhibition after 48 hrs by xCELLigence assay. It is filed as functional, cell-based. The following applies: Homo sapiens.
In test [3] the test system is SK-OV-3. The test is described as follows: Cytotoxicity against human SKOV3 cells after 48 hrs by MTS assay. It is filed as functional, cell-based. The following applies: SK-OV-3, 48 h. For orientation: Formazan colour is commonly taken as a measure of viable cells.
The subject of test [4] is SK-OV-3. In words: Cell cycle arrest in human SKOV3 cells assessed as accumulation at G1 phase at 5 nM by flow cytometry (reference value: 54%). Format: functional.
Test [5] has as its system SK-OV-3. The test is described as follows: Cell cycle arrest in human SKOV3 cells assessed as accumulation at S phase at 5 nM by flow cytometry (reference value: 31%). It is filed as functional.
The test system of test [6] is SK-OV-3. The test is described as follows: Cell cycle arrest in human SKOV3 cells assessed as accumulation at G2/M phase at 5 nM by flow cytometry (reference value: 14%). It is filed as functional.
Test [7] concerns HUVEC. The test is described as follows: Antivascular activity against HUVEC cells assessed as cell growth inhibition measured every 30 mins for 21 hrs by xCELLigence assay. Format: functional, cell-based. The following applies: Homo sapiens.
The species entered for test [8] is Bos taurus. In words: Inhibition of bovine tubulin polymerization at 5 uM measured every 30 secs for 60 mins by spectrophotometry relative to control.
Test [9] deals with HeLa. In words: Cytotoxicity against human HeLa cells. It is filed as functional, cell-based.

SMILES strings stand for the structures.

One may read the IC50 as the midpoint of a concentration-inhibition curve. As to `COc1ccc(/C=C\c2cc(OC)c(OC)c(OC)c2)c(O)c1O` [COMBRETASTATIN A-1], the IC50 was 2.6 nM in [1] and 4.1 nM in test [2].

Usually inhibition stands for the drop in the measured response relative to a control, in per cent. For `COc1ccc(/C=C\c2cc(OC)c(OC)c(OC)c2)cc1O` [COMBRETASTATIN A4], the IC50 in test [3] came to 1.7 nM; in [7] it was 2.2 nM. For the same compound, the Activity amounted to 40% in test [4], 23% in test [5] and 31% in [6]. The same compound displayed an inhibition in [8] of 57.6%.

For the compound `COc1ccc(/C=C\c2cc(Br)c(OC)c(Br)c2)cc1O`, the Activity in [6] is 54%.

In turn, `COc1cc(-c2nn[nH]c2-c2ccc(N)cc2)cc(OC)c1OC` showed an IC50 in test [9] of 5000 nM.

`COc1ccc(/C=C\c2cc(I)c(OC)c(I)c2)cc1O`: the Activity in test [6] is reported as 84%.

The values are drawn from ChEMBL document CHEMBL1944536, “Increased endothelial cell selectivity of triazole-bridged dihalogenated A-ring analogues of combretastatin A-1” (Bioorg Med Chem, 2012).
